# System: Caco-2 cells
# Experiment: Iron bioavailability test in the in vitro digestion/Caco-2 cell culture system (ferritin ELISA, Bradford total protein)
# Assay type: in vitro ADME, Human
# Procedure: The assay followed the guidance of Department of Health, Executive Yuan, R.O.C. (TAIWAN) and was conducted to analyze the cytotoxicity and the iron bioavailability of Fe3O4 microspheres in the in vitro digestion/Caco-2 cell culture system. The iron bioavailability from the test article could be evaluated by an in vitro system including enzymatic digestion, iron uptake and ferritin determination via an Enzyme-linked immunosorbent assay (ELISA).
# • Cell line: Human colon adenocarcinoma, clone of Caco-2. BCRC 80182. • Culture medium: Minimum Essential Medium (MEM) without any additional iron, iron conc.<8 μg/L. • Culture condition: 37±1° C. with 5% C02 incubator. • EBSS/MES buffer: Earle's balanced salt solution (EBSS) ? 10 mM MES (2-[4-morpholino]-ethanesulfonic acid) buffer, pH 6.0. • MEM enrichment medium: hydrocortisone (4 mg/L) ? 10 mM PIPES (piperazine-N,N′-bis-[2-ethanesulfonic acid]) ? 1% antibiotic-antimycotic solution ? insulin (5 mg/L) ? sodium selenite (5 μg/L) ? triiodothyronine ([…]) and epidermal growth factor (2 μg//L). • Iron removal solution: 1 mM bathophenanthroline disulfonic acid (BPDS) and 5 mM sodium hydrosulfite were dissolved in the rinse solution. • Rinse solution: 140 mM NaCl ? 5 mM KCI ? 10 mM PIPES, pH 7.0. Grouping:
# The test article were two sizes of Fe3O4 microspheres with an average diameter of 800 nanometer (nm) and 3000 nm, respectively. Both microspheres were placed in a buffer with a pH value ranges from 5-7. Preferably, the buffer was water or Phosphate Buffered Saline (PBS). In this experiment, the buffer was Phosphate Buffered Saline.
# • The digestion of the test article: 0.5 mL of test article was dissolved in 1 mL of 1 N HCl solution, and incubated at 37±1° C. for 16 hours. The final iron concentration was 100 μM. Phosphate buffered saline was used as the negative control and treated in the same condition without the test article. • Iron bioavailability test: • i. […] Measured the absorbance at 595 nm with an ELISA reader. • ii. […] Determined by, the human ferritin enzyme immunoassay test kit. • ii. […]
structure (smiles),measurement,setting,value
O=S(=O)([O-])[O-].[Fe+2] [FeSO4],Tested Ferritin,"Caco-2 cell lysate, 24 hours treatment, 50 μM FeSO4 (positive control)",61.1 ± 1.6 ng/mL
same,Calibrated Ferritin,"ferritin calibrated by total protein, Caco-2, 24 hours, 50 μM FeSO4 (positive control)",255.9±15.4 ng/mg protein
same,Iron availability,"relative to positive control, Caco-2, 24 hours, 50 μM FeSO4",100%

# Source: patent publication US8795739B2, “Iron fortified food product and additive” (Magqu Co. Ltd., priority 2012, dated 2014)
